Assay results published in patent US5116981A, “Antiinflammatory leukotriene B4 analogs” (The Upjohn Company, priority 1989, dated 1992).

How the values were obtained:
[1] = stability of the isolated product on storage; format: physicochemical; conditions: for stability in solution: methanol solution; for stability of the neat isolated product: as isolated oil
[2] = test system: chemotactic response of equimolar concentrations of LTB4; conditions: cited from earlier work
neutrophil = conditions: cited from earlier work

| SMILES | stability in solution [1] | stability of the neat isolated product [1] | also measured |
| --- | --- | --- | --- |
| CCCCC/C=C\CC(O)C#Cc1cccc(CC(O)CCCC(=O)O)c1 (stereo not shown) [Example 24, Benzenehexanoic acid, delta-hydroxy-3-[(3-hydroxy-5-undecen-1-ynyl)]] | stable as a methanol solution |  |  |
| CCCCC/C=C\CC(O)/C=C/c1cccc(CC(O)CCCC(=O)O)n1 (stereo not shown) [Example 35, 2-Pyridinehexanoic acid, delta-hydroxy-6-(3-hydroxy-1,5-undecadienyl) -] | stable methanol solution | unstable oil |  |
| CCCCC/C=C\CC(O)C#Cc1cccc(CC(O)CCCC(=O)O)n1 (stereo not shown) [Example 36, 2-Pyridinehexanoic acid, delta-hydroxy-6-(3-hydroxy-5-undecen-1-ynyl)-] |  | unstable pale oil |  |
| CCCCC/C=C\C[C@H](/C=C/C=C/C=C\[C@H](CCCC(=O)O)OC(C)=O)OC(C)=O [LTB4 diacetate] |  |  | inhibition of chemotactic response to LTB4 [2]: competitively inhibit chemotactic response |
| CCCCCC=CCC(O)C=CC=CC=CC(O)CCCC(=O)N(C)C (stereo not shown) [dimethylamide of LTB4] |  |  | agonist activity (neutrophil; at the concentrations that inhibit degranulation): no appreciable agonist activity; inhibition of neutrophil degranulation induced by LTB4 (neutrophil): inhibit neutrophil degranulation induced by LTB4 |
